Results as given in the supplement of paper PMC10307832.

Key:
Assay in all cases: relative viability (nuclei count vs DMSO), 5 days (fraction); higher = more cells survive
GSK-J4 + Luminespib = compound: CCOC(=O)CCNc1cc(N2CCc3ccccc3CC2)nc(-c2ccccn2)n1 [GSK-J4] + CCNC(=O)c1noc(-c2cc(C(C)C)c(O)cc2O)c1-c1ccc(CN2CCOCC2)cc1 [Luminespib] (partner 0.01 µM)
In short: (§1)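 Relative viability divides the nuclei count in treated wells by that in vehicle wells. Lung cancer cell lines were seeded in 1536-well plates, dosed by pin tool the next day, and fixed and stained after 5 days in one step with final 0.05% Triton X-100, 1% formaldehyde and 1 ug/ml Hoechst. Dosing was a single drug or a fixed anchor-drug dose plus five library-drug doses (not always all listed) in √10 steps, and values are medians of duplicate plates imaged at 4×.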

AZ3146 + AZD7762 = compound: CN1CCC(CC1)OC2=CC(=C(C=C2)NC3=NC=C4C(=N3)N(C(=O)N4C)C5CCCC5)OC [AZ3146] + NC(=O)Nc1cc(-c2cccc(F)c2)sc1C(=O)N[C@H]1CCCNC1 [AZD7762] (partner 0.2 µM)
In short: as §1

AZ3146 + OSI-027 = compound: CN1CCC(CC1)OC2=CC(=C(C=C2)NC3=NC=C4C(=N3)N(C(=O)N4C)C5CCCC5)OC [AZ3146] + COc1cccc2cc(-c3nc([C@H]4CC[C@H](C(=O)O)CC4)n4ncnc(N)c34)[nH]c12 [OSI-027] (partner 0.5 µM)
In short: as §1

GSK-J4 + Pictilisib = compound: CCOC(=O)CCNc1cc(N2CCc3ccccc3CC2)nc(-c2ccccn2)n1 [GSK-J4] + CS(=O)(=O)N1CCN(Cc2cc3nc(-c4cccc5[nH]ncc45)nc(N4CCOCC4)c3s2)CC1 [Pictilisib] (partner 1 µM)
In short: as §1

Cell Line | relative viability (GSK-J4 + Luminespib; first compound 0.5 µM) | relative viability (GSK-J4 + Luminespib; first compound 1.581 µM) | relative viability (GSK-J4 + Luminespib; first compound 5 µM) | relative viability (GSK-J4 + Luminespib; first compound 15.81 µM) | relative viability (GSK-J4 + Luminespib; first compound 50 µM) | relative viability (AZ3146 + AZD7762; first compound 0.08 µM) | relative viability (AZ3146 + AZD7762; first compound 0.253 µM) | relative viability (AZ3146 + AZD7762; first compound 0.8 µM) | relative viability (AZ3146 + AZD7762; first compound 2.53 µM) | relative viability (AZ3146 + AZD7762; first compound 8 µM) | relative viability (AZ3146 + OSI-027; first compound 0.08 µM) | relative viability (AZ3146 + OSI-027; first compound 0.253 µM) | relative viability (AZ3146 + OSI-027; first compound 0.8 µM) | relative viability (AZ3146 + OSI-027; first compound 2.53 µM) | relative viability (AZ3146 + OSI-027; first compound 8 µM) | relative viability (GSK-J4 + Pictilisib; first compound 0.5 µM) | relative viability (GSK-J4 + Pictilisib; first compound 1.581 µM) | relative viability (GSK-J4 + Pictilisib; first compound 5 µM) | relative viability (GSK-J4 + Pictilisib; first compound 15.81 µM) | relative viability (GSK-J4 + Pictilisib; first compound 50 µM)
NCI-H2085 | 0.477 | 0.394 | 0.419 | 0.41 | 0.309 | 0.912 | 0.974 | 0.95 | 1.04 | 0.708 | 0.614 | 0.648 | 0.649 | 0.852 | 0.475 | 0.546 | 0.463 | 0.677 | 0.481 | 0.415
NCI-H2087 | 0.172 |  | 0.166 | 0.162 | 0.174 | 1.18 | 1.36 | 1.22 | 1.38 | 1.16 | 0.54 | 0.656 | 0.469 | 0.674 | 0.525 | 0.816 | 0.341 |  | 0.999 | 0.424
NCI-H2126 | 0.796 | 0.867 | 0.876 | 0.82 | 0.651 | 0.932 | 1 | 0.948 | 1.16 | 0.998 | 0.6 | 0.706 | 0.537 | 0.784 | 0.649 | 0.517 | 0.446 | 0.633 | 0.519 | 0.41
NCI-H2170 | 0.576 | 0.668 | 0.81 | 0.362 | 0.609 | 0.85 | 0.889 | 0.871 | 0.814 | 0.713 | 0.676 | 0.66 | 0.66 | 0.713 | 0.713 | 0.325 | 0.381 | 0.27 | 0.357 | 0.221
NCI-H2347 | 0.529 | 0.405 | 0.341 |  | 0.435 | 0.577 | 0.934 | 0.649 | 0.746 | 0.677 | 0.245 | 0.452 | 0.48 | 0.293 | 0.466 | 0.623 | 0.596 | 0.855 | 0.731 | 0.494
NCI-H2405 | 0.774 | 0.674 |  | 0.511 | 0.653 | 0.838 | 0.771 | 0.702 | 0.589 | 0.618 | 0.652 | 0.62 | 0.582 | 0.696 | 0.641 | 0.465 | 0.713 |  | 0.708 | 0.475
NCI-H3122 | 0.0789 | 0.067 | 0.119 | 0.0946 | 0.121 | 1.01 | 0.933 | 0.966 | 1.06 | 0.973 | 1.07 | 1.03 | 0.776 | 0.92 | 0.729 | 0.547 | 0.63 | 0.785 | 0.557 | 0.382
PC-3 [JPC-3] | 0.698 | 0.552 | 0.735 | 0.584 | 0.439 | 0.734 |  | 0.797 | 0.813 | 0.754 | 0.624 | 0.792 | 0.789 | 0.77 | 0.776 | 0.644 | 0.647 | 0.757 | 0.742 | 0.671
PC-14 | 0.216 | 0.159 | 0.151 | 0.126 | 0.125 | 0.343 | 0.355 | 0.415 | 0.382 | 0.294 | 0.805 | 0.784 | 0.741 | 0.853 | 0.185 | 0.642 | 0.672 | 0.678 | 0.714 | 0.615
RERF-LC-KJ | 1.23 | 1.17 | 1.31 | 1.12 | 0.584 | 0.879 | 0.61 | 0.883 | 0.976 | 0.972 | 0.669 | 0.548 | 0.571 | 0.575 | 0.398 | 0.465 | 0.459 | 0.639 | 0.635 | 0.434
